# Assay results published in ChEMBL document CHEMBL4616599, “Molecular mechanism of C-phycocyanin induced apoptosis in LNCaP cells” (Bioorg Med Chem, 2020).
# The source made the active and inactive calls. The calls are words filed in the database; no cut-off is given here.
# How the values were obtained:
# [1] = Drug uptake in plasma membrane of human LNCAP cells at 250 to 500 ug/mL incubated for 12 hrs followed by single washout by fluorescence microscopic analysis; assay type: ADME, cell membranes
# LNCaP [2] = experiment: Up regulation of BAG1 gene expression in human LNCAP cells at 500 ug/ml measured after 24 hrs by RT profile PCR analysis relative to control; assay type: functional
# LNCaP [3] = experiment: Induction of apoptosis in human LNCAP cells assessed as up regulation of pro-apoptotic protein Apaf-1 expression at 500 ug/ml measured after 24 hrs by Western blot analysis; assay type: functional, cell-based
# LNCaP [4] = experiment: Induction of apoptosis in human LNCAP cells assessed as increase in caspase 3 activity at 500 ug/ml measured after 24 hrs in presence of topotecan by Ac-DEVD-pNA substrate based colorimetric assay; assay type: functional, cell-based
# LNCaP [5] = experiment: Induction of apoptosis against human LNCAP cells assessed as down regulation of survivin expression at 500 ug/ml measured after 24 hrs by Western blot analysis; assay type: functional, cell-based
# LNCaP [6] = experiment: Induction of apoptosis in human LNCAP cells assessed as increase in cleaved PARP expression at 500 ug/ml measured after 24 hrs by western blot analysis; assay type: functional, cell-based
# [7] = Drug uptake in plasma membrane of human LNCAP cells at 250 to 500 ug/ml incubated for 12 hrs followed by 3 times washout by fluorescence microscopic analysis; assay type: ADME, cell membranes
# LNCaP [8] = experiment: Up regulation of TP73 gene expression in human LNCAP cells at 500 ug/ml measured after 24 hrs by RT profile PCR analysis relative to control; assay type: functional
# LNCaP [9] = experiment: Induction of apoptosis in human LNCAP cells assessed as increase in FAS expression at 500 ug/ml measured after 24 hrs in presence of topotecan by Western blot analysis; assay type: functional, cell-based
# LNCaP [10] = experiment: Down regulation of AKT1 gene expression in human LNCAP cells at 500 ug/ml measured after 24 hrs by RT profile PCR analysis relative to control; assay type: functional
# LNCaP [11] = experiment: Induction of apoptosis in human LNCAP cells assessed as down regulation of Mcl-1 expression at 500 ug/ml measured after 24 hrs in presence of topotecan by Western blot analysis; assay type: functional, cell-based
# LNCaP [12] = experiment: Up regulation of FAS gene expression in human LNCAP cells at 500 ug/ml measured after 24 hrs by RT profile PCR analysis relative to control; assay type: functional
# LNCaP [13] = experiment: Induction of apoptosis in human LNCAP cells assessed as up regulation of p53 expression at 500 ug/ml measured after 24 hrs in presence of topotecan by immunoblot analysis; assay type: functional, cell-based
# LNCaP [14] = experiment: Induction of apoptosis in human LNCAP cells assessed as up regulation of cleaved caspase 3 expression at 500 ug/ml measured after 24 hrs in presence of topotecan by Western blot analysis; assay type: functional, cell-based
# LNCaP [15] = experiment: Up regulation of CASP8 gene expression in human LNCAP cells at 500 ug/ml measured after 24 hrs by RT profile PCR analysis relative to control; assay type: functional
# LNCaP [16] = experiment: Down regulation of BIRC5 gene expression in human LNCAP cells at 500 ug/ml measured after 24 hrs by RT profile PCR analysis relative to control; assay type: functional
# LNCaP [17] = experiment: Induction of apoptosis in human LNCAP cells assessed as decrease in uncleaved PARP expression at 500 ug/ml measured after 24 hrs by Western blot analysis; assay type: functional, cell-based
# LNCaP [18] = experiment: Induction of apoptosis in human LNCAP cells assessed as increase in cleaved PARP expression at 500 ug/ml measured after 24 hrs in presence of topotecan by Western blot analysis; assay type: functional, cell-based
# LNCaP [19] = experiment: Induction of apoptosis in human LNCAP cells assessed as decrease in uncleaved PARP expression at 500 ug/ml measured after 24 hrs in presence of topotecan by Western blot analysis; assay type: functional, cell-based
# LNCaP [20] = experiment: Induction of apoptosis in human LNCAP cells assessed as increase in FAS expression at 500 ug/ml measured after 24 hrs by Western blot analysis; assay type: functional, cell-based
# LNCaP [21] = experiment: Down regulation of BCL2 gene expression in human LNCAP cells at 500 ug/ml measured after 24 hrs by RT profile PCR analysis relative to control; assay type: functional
# LNCaP [22] = experiment: Induction of apoptosis in human LNCAP cells assessed as down regulation of survivin expression at 500 ug/ml measured after 24 hrs in presence of topotecan by Western blot analysis; assay type: functional, cell-based
# LNCaP [23] = experiment: Induction of apoptosis in human LNCAP cells assessed as up regulation of p21 expression at 500 ug/ml measured after 24 hrs by immunoblot analysis; assay type: functional, cell-based
# LNCaP [24] = experiment: Induction of apoptosis in human LNCAP cells assessed as Bax/Bcl2 ratio at 500 ug/ml measured after 24 hrs in presence of topotecan by Western blot analysis; assay type: functional
# [25] = target: T1, Tumor necrosis factor receptor superfamily member 6 (Homo sapiens) (UniProt P25445); experiment: Activation of FAS receptor in human LNCAP cells assessed as increase in caspase 8 activity at 500 ug/ml measured after 24 hrs in presence of topotecan by Ac-IETD-pNA substrate based colorimetric assay; assay type: cell-based
# T1 sequence (whole entry): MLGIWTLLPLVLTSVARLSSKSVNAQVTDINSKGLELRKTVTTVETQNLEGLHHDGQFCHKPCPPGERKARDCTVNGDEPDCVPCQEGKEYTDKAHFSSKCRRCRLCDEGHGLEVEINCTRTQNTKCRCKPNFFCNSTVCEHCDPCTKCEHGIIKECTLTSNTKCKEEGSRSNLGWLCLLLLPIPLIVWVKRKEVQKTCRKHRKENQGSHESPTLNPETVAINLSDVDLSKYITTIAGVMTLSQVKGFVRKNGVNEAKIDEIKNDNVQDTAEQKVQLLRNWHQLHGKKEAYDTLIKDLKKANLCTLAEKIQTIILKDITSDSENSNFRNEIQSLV
# LNCaP [26] = experiment: Up regulation of TNFRSF1OB gene expression in human LNCAP cells at 500 ug/ml measured after 24 hrs by RT profile PCR analysis relative to control; assay type: functional
# LNCaP [27] = experiment: Induction of apoptosis in human LNCAP cells assessed as increase in caspase 9 activity at 500 ug/ml measured after 24 hrs by Ac-LEHD-pNA substrate based colorimetric assay; assay type: functional, cell-based
# LNCaP [28] = experiment: Induction of DNA fragmentation in human LNCAP cells at 500 ug/ml measured after 24 hrs in presence of topotecan by agarose gel electrophoresis; assay type: functional, cell-based
# LNCaP [29] = experiment: Induction of apoptosis in human LNCAP cells assessed as down regulation of Bcl2 expression at 500 ug/ml measured after 24 hrs in presence of topotecan by Western blot analysis; assay type: functional, cell-based
# LNCaP [30] = experiment: Induction of apoptosis in human LNCAP cells assessed as up regulation of pro-apoptotic protein Bax expression at 500 ug/ml measured after 24 hrs in presence of topotecan by Western blot analysis; assay type: functional, cell-based
# LNCaP [31] = experiment: Induction of apoptosis in human LNCAP cells assessed as down regulation of Mcl-1 expression at 500 ug/ml measured after 24 hrs by Western blot analysis; assay type: functional, cell-based
# [32] = target: T1, Tumor necrosis factor receptor superfamily member 6 (Homo sapiens); experiment: Activation of FAS receptor in human LNCAP cells assessed as increase in caspase 8 activity at 500 ug/ml measured after 24 hrs by Ac-IETD-pNA substrate based colorimetric assay; assay type: cell-based
# LNCaP [33] = experiment: Induction of apoptosis in human LNCAP cells assessed as down regulation of Bcl2 expression at 500 ug/ml measured after 24 hrs by Western blot analysis; assay type: functional, cell-based
# LNCaP [34] = experiment: Induction of apoptosis in human LNCAP cells assessed as up regulation of p53 expression at 500 ug/ml measured after 24 hrs by immunoblot analysis; assay type: functional, cell-based
# [35] = Drug uptake in cytoplasm of human LNCAP cells at 250 to 500 ug/ml incubated for 12 hrs followed by 3 times washout by fluorescence microscopic analysis; assay type: ADME, subcellular
# [36] = Drug uptake in cytoplasm of human LNCAP cells at 250 to 500 ug/mL incubated for 12 hrs followed by single compound washout by fluorescence microscopic analysis; assay type: ADME, subcellular
# LNCaP [37] = experiment: Cytotoxicity against human LNCAP cells assessed as reduction in cell viability at 500 ug/ml measured after 24 hrs in presence of topotecan by trypan blue dye exclusion test relative to control; assay type: functional
# LNCaP [38] = experiment: Induction of apoptosis in human LNCAP cells assessed as up regulation of pro-apoptotic protein Apaf-1 expression at 500 ug/ml measured after 24 hrs in presence of topotecan by Western blot analysis; assay type: functional, cell-based
# LNCaP [39] = experiment: Cytotoxicity against human LNCAP cells assessed as reduction in cell viability at 500 ug/mL after 24 hrs by trypan blue dye exclusion assay; assay type: functional, cell-based
# LNCaP [40] = experiment: Up regulation of TNFRSF1B gene expression in human LNCAP cells at 500 ug/ml measured after 24 hrs by RT profile PCR analysis relative to control; assay type: functional
# LNCaP [41] = experiment: Up regulation of GADD45A gene expression in human LNCAP cells at 500 ug/ml measured after 24 hrs by RT profile PCR analysis relative to control; assay type: functional
# LNCaP [42] = experiment: Induction of apoptosis in human LNCAP cells assessed as Bax/Bcl2 ratio at 500 ug/ml measured after 24 hrs by Western blot analysis; assay type: functional
# LNCaP [43] = experiment: Induction of apoptosis in human LNCAP cells assessed as increase in caspase 9 activity at 500 ug/ml measured after 24 hrs in presence of topotecan by Ac-LEHD-pNA substrate based colorimetric assay; assay type: functional, cell-based
# LNCaP [44] = experiment: Induction of apoptosis in human LNCAP cells assessed as up regulation of cleaved caspase 3 expression at 500 ug/ml measured after 24 hrs by Western blot analysis; assay type: functional, cell-based
# LNCaP [45] = experiment: Induction of apoptosis in human LNCAP cells assessed as increase in caspase 3 activity at 500 ug/ml measured after 24 hrs by Ac-DEVD-pNA substrate based colorimetric assay; assay type: functional, cell-based
# LNCaP [46] = experiment: Induction of DNA fragmentation in human LNCAP cells at 500 ug/ml measured after 24 hrs by agarose gel electrophoresis; assay type: functional, cell-based
# LNCaP [47] = experiment: Induction of apoptosis in human LNCAP cells assessed as up regulation of p21 expression at 500 ug/ml measured after 24 hrs in presence of topotecan by immunoblot analysis; assay type: functional, cell-based
# LNCaP [48] = experiment: Down regulation of IGF1R gene expression in human LNCAP cells at 500 ug/ml measured after 24 hrs by RT profile PCR analysis relative to control; assay type: functional
# LNCaP [49] = experiment: Up regulation of BAX gene expression in human LNCAP cells at 500 ug/ml measured after 24 hrs by RT profile PCR analysis relative to control; assay type: functional
# LNCaP [50] = experiment: Induction of apoptosis in 3 hrs FAS inhibitor KP7-6 treated human LNCAP cells assessed as increase in caspase 8 activity at 500 ug/ml measured after 24 hrs by Ac-IETD-pNA substrate based colorimetric assay; assay type: functional, cell-based
# LNCaP [51] = experiment: Up regulation of TNFRSF10A gene expression in human LNCAP cells at 500 ug/ml measured after 24 hrs by RT profile PCR analysis relative to control; assay type: functional
structure (smiles),measurement,setting,value
C/C=C1/C(=C\c2[nH]c(/C=C3N=C(/C=C4/NC(=O)C(CC)=C4C)C(C)=C/3CCC(=O)O)c(CCC(=O)O)c2C)NC(=O)C1C (stereo unspecified),Drug uptake,[1],Active
same,fold change (FC),LNCaP [2],1.76
same,Activity,LNCaP [3],Active
same,Activity,LNCaP [4],Active
same,Activity,LNCaP [5],Active
same,Activity,LNCaP [6],Active
same,Drug uptake,[7],Active
same,fold change (FC),LNCaP [8],2.23
same,Activity,LNCaP [9],Active
same,fold change (FC),LNCaP [10],0.56
same,Activity,LNCaP [11],Active
same,fold change (FC),LNCaP [12],5.34
same,Activity,LNCaP [13],Active
same,Activity,LNCaP [14],Active
same,fold change (FC),LNCaP [15],1.2
same,fold change (FC),LNCaP [16],0.009
same,Activity,LNCaP [17],Active
same,Activity,LNCaP [18],Active
same,Activity,LNCaP [19],Active
same,Activity,LNCaP [20],Active
same,fold change (FC),LNCaP [21],0.45
same,Activity,LNCaP [22],Active
same,Activity,LNCaP [23],Active
same,Ratio,LNCaP [24],>3.5
same,Activity,[25],Active
same,fold change (FC),LNCaP [26],2.72
same,Activity,LNCaP [27],Active
same,Activity,LNCaP [28],Active
same,Activity,LNCaP [29],Active
same,Activity,LNCaP [30],Active
same,Activity,LNCaP [31],Active
same,Activity,[32],Active
same,Activity,LNCaP [33],Active
same,Activity,LNCaP [34],Active
same,Drug uptake,[35],Not Active
same,Drug uptake,[36],Not Active
same,Activity,LNCaP [37],>65%
same,Activity,LNCaP [38],Active
same,Activity,LNCaP [39],Active
same,fold change (FC),LNCaP [40],1.67
same,fold change (FC),LNCaP [41],6.01
same,Ratio,LNCaP [42],>1.5
same,Activity,LNCaP [43],Active
same,Activity,LNCaP [44],Active
same,Activity,LNCaP [45],Active
same,Activity,LNCaP [46],Active
same,Activity,LNCaP [47],Active
same,fold change (FC),LNCaP [48],0.47
same,fold change (FC),LNCaP [49],3.84
same,Activity,LNCaP [50],inactive
same,fold change (FC),LNCaP [51],2.33
